The results in this text go back to ChEMBL document CHEMBL1137073, “Development of irreversible diphenyl phosphonate inhibitors for urokinase plasminogen activator” (J Med Chem, 2004).

Assay [1] has as its target T1, Urokinase-type plasminogen activator (Homo sapiens, UniProt P00749). The experiment in a line: (§1) Inhibitory activity against Urokinase-type plasminogen activator.
Assay [2] addresses T2, Tissue-type plasminogen activator (Homo sapiens, UniProt P00750). The experiment in a line: Inhibitory activity against Tissue type plasminogen activator.
Target sequence in this assay (P00750 whole entry): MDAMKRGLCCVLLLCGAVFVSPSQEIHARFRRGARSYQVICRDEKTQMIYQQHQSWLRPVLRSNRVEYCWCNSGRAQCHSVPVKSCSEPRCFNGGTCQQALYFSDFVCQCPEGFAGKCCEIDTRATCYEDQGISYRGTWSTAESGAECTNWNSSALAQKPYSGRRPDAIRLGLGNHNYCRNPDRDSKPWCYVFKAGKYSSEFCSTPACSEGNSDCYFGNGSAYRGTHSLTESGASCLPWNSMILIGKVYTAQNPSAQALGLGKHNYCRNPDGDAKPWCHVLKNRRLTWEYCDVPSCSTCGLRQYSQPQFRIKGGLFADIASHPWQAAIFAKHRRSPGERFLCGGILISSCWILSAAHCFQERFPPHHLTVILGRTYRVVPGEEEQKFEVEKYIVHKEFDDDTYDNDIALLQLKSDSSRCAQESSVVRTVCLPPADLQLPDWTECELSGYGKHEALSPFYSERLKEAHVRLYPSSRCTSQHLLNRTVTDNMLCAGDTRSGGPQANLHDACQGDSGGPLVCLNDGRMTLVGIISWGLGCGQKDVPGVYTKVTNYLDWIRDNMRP
For assay [3], the target named is T3, Plasminogen (Homo sapiens, UniProt P00747). The experiment in a line: Inhibitory activity against plasmin.
Assay [4] addresses T4, Coagulation factor X (Homo sapiens, UniProt P00742). Nature of the assay: Inhibitory activity against Coagulation factor Xa.
For assay [5], the target named is T5, Prothrombin (Homo sapiens, UniProt P00734). Nature of the assay: Inhibitory activity against thrombin.
In assay [6] the target is T5, Prothrombin. Nature of the assay: Inhibitory activity against thrombin at a concentration of 2.5 uM.
The target in assay [7] is T4, Coagulation factor X. The conditions noted are these: at 250 µM.
Description: Inhibitory activity against Coagulation factor Xa at a concentration of 250 uM
The target in assay [8] is T1, Urokinase-type plasminogen activator. Described as §1. This is another data set of the same source.
Assay [9] has as its target T2, Tissue-type plasminogen activator. The experiment in a line: Inhibitory activity against Tissue type plasminogen activator at a concentration of.
Target sequence in this assay (P00750 36-562 limits assumed): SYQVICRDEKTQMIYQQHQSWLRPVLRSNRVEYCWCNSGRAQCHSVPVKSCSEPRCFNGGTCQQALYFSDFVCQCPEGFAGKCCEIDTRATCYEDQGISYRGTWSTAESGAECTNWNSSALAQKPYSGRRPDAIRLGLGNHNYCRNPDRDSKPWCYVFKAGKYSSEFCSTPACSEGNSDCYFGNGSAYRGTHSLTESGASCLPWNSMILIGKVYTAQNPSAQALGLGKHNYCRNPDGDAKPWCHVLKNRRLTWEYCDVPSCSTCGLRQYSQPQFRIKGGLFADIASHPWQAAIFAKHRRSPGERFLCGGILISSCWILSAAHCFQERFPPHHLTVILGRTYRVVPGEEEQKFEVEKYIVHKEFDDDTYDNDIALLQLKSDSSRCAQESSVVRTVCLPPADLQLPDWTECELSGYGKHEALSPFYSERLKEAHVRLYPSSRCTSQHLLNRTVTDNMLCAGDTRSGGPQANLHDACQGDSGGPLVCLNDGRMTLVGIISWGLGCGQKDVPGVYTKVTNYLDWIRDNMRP
Assay [10] concerns the target T3, Plasminogen. The conditions noted are these: at 250 µM.
Description: Inhibitory activity against plasmin at a concentration of 250 uM
The target in assay [11] is T2, Tissue-type plasminogen activator. Nature of the assay: Inhibitory activity against Tissue type plasminogen activator at a concentration of 2.5 uM.
Target sequence in this assay (P00750 36-562 limits assumed): as above
For assay [12] the target is unchanged. The conditions noted are these: at 250 µM.
Target sequence in this assay (P00750 36-562 limits assumed): as above
Description: (§2) Inhibitory activity against Tissue type plasminogen activator at a concentration of 250 uM
Assay [13] addresses T5, Prothrombin. The conditions noted are these: at 250 µM.
Description: Inhibitory activity against thrombin at a concentration of 250 uM
In assay [14] the target is T2, Tissue-type plasminogen activator. The conditions noted are these: at 250 µM. This is another data set of the same source.
Target sequence in this assay (P00750 36-562 limits assumed): as above
Description: as §2

T4 sequence (P00742 41-179 limits assumed): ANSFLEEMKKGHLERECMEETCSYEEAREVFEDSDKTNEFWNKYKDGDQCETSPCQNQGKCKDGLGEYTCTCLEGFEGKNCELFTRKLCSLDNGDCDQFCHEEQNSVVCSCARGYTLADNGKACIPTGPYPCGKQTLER
T4 sequence (P00742 235-488 limits assumed): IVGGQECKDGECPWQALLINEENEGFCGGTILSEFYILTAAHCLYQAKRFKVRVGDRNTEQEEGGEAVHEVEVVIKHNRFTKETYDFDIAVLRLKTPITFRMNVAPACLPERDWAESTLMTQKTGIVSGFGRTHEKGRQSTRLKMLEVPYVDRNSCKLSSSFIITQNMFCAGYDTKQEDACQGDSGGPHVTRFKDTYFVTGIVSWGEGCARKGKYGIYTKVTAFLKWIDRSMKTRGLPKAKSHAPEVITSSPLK
T3 sequence (P00747 97-580 limits assumed): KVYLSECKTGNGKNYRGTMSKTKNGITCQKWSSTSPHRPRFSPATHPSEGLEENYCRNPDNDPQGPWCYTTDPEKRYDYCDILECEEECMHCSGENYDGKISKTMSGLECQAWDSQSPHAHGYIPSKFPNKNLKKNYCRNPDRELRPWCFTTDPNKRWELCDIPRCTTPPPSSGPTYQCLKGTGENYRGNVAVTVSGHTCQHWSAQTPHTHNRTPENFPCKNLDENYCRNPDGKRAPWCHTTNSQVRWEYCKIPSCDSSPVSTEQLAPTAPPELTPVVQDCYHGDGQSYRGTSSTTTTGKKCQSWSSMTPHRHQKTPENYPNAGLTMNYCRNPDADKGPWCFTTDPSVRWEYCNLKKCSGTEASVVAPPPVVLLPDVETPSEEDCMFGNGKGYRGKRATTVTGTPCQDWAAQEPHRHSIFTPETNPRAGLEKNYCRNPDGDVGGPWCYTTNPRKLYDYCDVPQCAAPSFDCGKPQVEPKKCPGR
T3 sequence (P00747 581-810 limits assumed): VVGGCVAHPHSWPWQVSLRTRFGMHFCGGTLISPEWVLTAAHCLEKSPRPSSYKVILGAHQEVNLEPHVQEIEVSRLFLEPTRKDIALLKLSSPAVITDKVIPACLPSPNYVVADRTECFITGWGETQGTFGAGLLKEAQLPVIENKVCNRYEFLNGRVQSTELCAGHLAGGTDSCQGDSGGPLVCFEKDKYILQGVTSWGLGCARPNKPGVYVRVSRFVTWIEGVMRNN

In general, IC50 refers to the midpoint of a concentration-inhibition curve. Read a low IC50 as higher potency. Consider `C[C@H](NC(=O)[C@@H](CO)NC(=O)OCc1ccccc1)C(=O)NC(Cc1ccc(N=C(N)N)cc1)P(=O)(Oc1ccccc1)Oc1ccccc1` (some centres undefined), for which the half-maximal inhibitory concentration (IC50) is 0.057 µM in [1]; 14 µM in [2]; 22 µM against Plasminogen [3]; 79 µM on Coagulation factor X [4]; 30 µM against Prothrombin [5].
The term inhibition denotes the drop in the measured response relative to a control, in per cent. A lower inhibition goes with a weak effect. For `C[C@H](NC(=O)[C@@H](CO)NC(=O)OCc1ccccc1)C(=O)NC(c1ccc(NC(=N)N)cc1)P(=O)(Oc1ccccc1)Oc1ccccc1` (some centres undefined), the inhibition was 44% on Prothrombin [6], 56% at Coagulation factor X [7], 53% in assay [9] and 46% on Plasminogen [10]. In [8], the K app was found to be 2 M⁻¹ s⁻¹.
With `C[C@H](NC(=O)[C@@H](CO)NC(=O)OCc1ccccc1)C(=O)NC(c1ccc(N=C(N)N)cc1)P(=O)(Oc1ccccc1)Oc1ccccc1` (some centres undefined), the IC50 in assay [1] is 1.6 µM.
On to `C[C@H](NC(=O)[C@@H](CO)NC(=O)OCc1ccccc1)C(=O)NC(CCCN=C(N)N)P(=O)(Oc1ccccc1)Oc1ccccc1` (some centres undefined), for which the inhibition in assay [11] came out at 50%.
As for `N=C(N)NC(=O)c1nc(Cl)c(N)nc1N` [AMILORIDE], the inhibition against Coagulation factor X [7] stood at 17%; at Plasminogen [10], 23%. For the same compound, the IC50 (in assay [2]; against Prothrombin [5]) was above 250 µM in each case.
For `C[C@H](NC(=O)[C@@H](CO)NC(=O)OCc1ccccc1)C(=O)NC(CCN=C(N)N)P(=O)(Oc1ccccc1)Oc1ccccc1` (some centres undefined), the inhibition stood at 10% against Prothrombin [6]; 6% on Coagulation factor X [7]; 46% in assay [12]; 15% at Plasminogen [10]; 96% against Prothrombin [13]. The compound further came in with a K app in [8] of 1.4 M⁻¹ s⁻¹.
Turning to `C[C@H](NC(=O)[C@@H](CO)NC(=O)OCc1ccccc1)C(=O)NC(CCCCN=C(N)N)P(=O)(Oc1ccccc1)Oc1ccccc1` (some centres undefined), the inhibition was 12% on Prothrombin [6] and 19% in [11]. The same compound came in with an IC50 in assay [1] of 0.25 µM. This compound also registered a K app in assay [8] of 3.8 M⁻¹ s⁻¹.
In turn, `C[C@H](NC(=O)[C@@H](CO)NC(=O)OCc1ccccc1)C(=O)NC(CCNC(=N)N)P(=O)(Oc1ccccc1)Oc1ccccc1` (some centres undefined) came in with a 50% inhibitory concentration (IC50) in assay [1] of 4.1 µM.
As to `C[C@H](NC(=O)[C@@H](CO)NC(=O)OCc1ccccc1)C(=O)NC(CCCNC(=N)N)P(=O)(Oc1ccccc1)Oc1ccccc1` (some centres undefined), the IC50 amounted to 0.061 µM in [1], 10.8 µM against Plasminogen [3], 65 µM on Coagulation factor X [4] and 0.5 µM at Prothrombin [5].
As for `C[C@H](NC(=O)[C@@H](CO)NC(=O)OCc1ccccc1)C(=O)NC([C@H]1CC[C@H](CN=C(N)N)CC1)P(=O)(Oc1ccccc1)Oc1ccccc1` (some centres undefined), the inhibition was 77% against Coagulation factor X [7], 41% in assay [14] and 40% against Prothrombin [13]. The concentration for half-maximal inhibition (IC50) in assay [1] stood at 1.1 µM; on Plasminogen [3], 32.2 µM. Further, in assay [8], the K app is 1.4 M⁻¹ s⁻¹.
As to `C[C@H](NC(=O)[C@@H](CO)NC(=O)OCc1ccccc1)C(=O)NC(c1ccc(CN=C(N)N)cc1)P(=O)(Oc1ccccc1)Oc1ccccc1` (some centres undefined), the inhibition came to 44% at Coagulation factor X [7], 45% on Plasminogen [10], 43% in assay [14] and 20% against Prothrombin [13]. Also, the midpoint of inhibition in assay [1], the IC50, lay at 8.4 µM. Besides, the K app in assay [8] was 3.3 M⁻¹ s⁻¹.
With `C[C@H](NC(=O)[C@@H](CO)NC(=O)OCc1ccccc1)C(=O)NC(Cc1ccc(NC(=N)N)cc1)P(=O)(Oc1ccccc1)Oc1ccccc1` (some centres undefined), in assay [8], the K app came out at 6.7 M⁻¹ s⁻¹.
